Assay results reported in ChEMBL document CHEMBL5523675, “Novel mitochondrial and DNA damaging fluorescent Calix[4]arenes bearing isatin groups as aromatase inhibitors: Design, synthesis and anticancer activity” (Bioorg Med Chem, 2024).

Legend:
[1] = Antiproliferative activity against human PNT1A cells assessed as inhibition of cell growth measured after 48 hrs by Alamar blue dye based assay; assay type: toxicity
MCF7 [2] = test: Antiproliferative activity against human MCF7 cells assessed as inhibition of cell growth measured after 48 hrs by Alamar blue dye based assay; assay type: functional; settings: MCF7, 48 h
MDA-MB-231 [3] = test: Antiproliferative activity against human MDA-MB-231 cells assessed as inhibition of cell growth measured after 48 hrs by Alamar blue dye based assay; assay type: functional; settings: MDA-MB-231, 48 h
PNT1A [4] = test: Induction of apoptosis in human PNT1A cells assessed as live cells incubated for 48 hrs by annexin V and 7-AAD staining based flow cytometry analysis (reference value: 99.69%); assay type: functional
PNT1A [5] = test: Induction of apoptosis in human PNT1A cells assessed as early apoptotic cells incubated for 48 hrs by annexin V and 7-AAD staining based flow cytometry analysis (reference value: 0.04%); assay type: functional
PNT1A [6] = test: Induction of apoptosis in human PNT1A cells assessed as late apoptotic cells incubated for 48 hrs by annexin V and 7-AAD staining based flow cytometry analysis (reference value: 0.04%); assay type: functional
PNT1A [7] = test: Induction of apoptosis in human PNT1A cells assessed as necrosis incubated for 48 hrs by annexin V and 7-AAD staining based flow cytometry analysis (reference value: 0.22%); assay type: functional
MDA-MB-231 [8] = test: Induction of apoptosis in human MDA-MB-231 cells assessed as live cells incubated for 48 hrs by annexin V and 7-AAD staining based flow cytometry analysis (reference value: 99.61%); assay type: functional
MDA-MB-231 [9] = test: Induction of apoptosis in human MDA-MB-231 cells assessed as early apoptotic cells incubated for 48 hrs by annexin V and 7-AAD staining based flow cytometry analysis (reference value: 0.18%); assay type: functional
MDA-MB-231 [10] = test: Induction of apoptosis in human MDA-MB-231 cells assessed as late apoptotic cells incubated for 48 hrs by annexin V and 7-AAD staining based flow cytometry analysis (reference value: 0.12%); assay type: functional
MDA-MB-231 [11] = test: Induction of apoptosis in human MDA-MB-231 cells assessed as necrosis incubated for 48 hrs by annexin V and 7-AAD staining based flow cytometry analysis (reference value: 0.09%); assay type: functional
MCF7 [12] = test: Induction of apoptosis in human MCF7 cells assessed as live cells incubated for 48 hrs by annexin V and 7-AAD staining based flow cytometry analysis (reference value: 99.14%); assay type: functional
MCF7 [13] = test: Induction of apoptosis in human MCF7 cells assessed as early apoptotic cells incubated for 48 hrs by annexin V and 7-AAD staining based flow cytometry analysis (reference value: 0.14%); assay type: functional
MCF7 [14] = test: Induction of apoptosis in human MCF7 cells assessed as late apoptotic cells incubated for 48 hrs by annexin V and 7-AAD staining based flow cytometry analysis (reference value: 0.68%); assay type: functional
MCF7 [15] = test: Induction of apoptosis in human MCF7 cells assessed as necrosis incubated for 48 hrs by annexin V and 7-AAD staining based flow cytometry analysis (reference value: 0.03%); assay type: functional
Aromatase = target: T1, Aromatase (Homo sapiens, UniProt P11511); test: Inhibition of human Aromatase by fluorimetric assay
T1 sequence (P11511 whole entry): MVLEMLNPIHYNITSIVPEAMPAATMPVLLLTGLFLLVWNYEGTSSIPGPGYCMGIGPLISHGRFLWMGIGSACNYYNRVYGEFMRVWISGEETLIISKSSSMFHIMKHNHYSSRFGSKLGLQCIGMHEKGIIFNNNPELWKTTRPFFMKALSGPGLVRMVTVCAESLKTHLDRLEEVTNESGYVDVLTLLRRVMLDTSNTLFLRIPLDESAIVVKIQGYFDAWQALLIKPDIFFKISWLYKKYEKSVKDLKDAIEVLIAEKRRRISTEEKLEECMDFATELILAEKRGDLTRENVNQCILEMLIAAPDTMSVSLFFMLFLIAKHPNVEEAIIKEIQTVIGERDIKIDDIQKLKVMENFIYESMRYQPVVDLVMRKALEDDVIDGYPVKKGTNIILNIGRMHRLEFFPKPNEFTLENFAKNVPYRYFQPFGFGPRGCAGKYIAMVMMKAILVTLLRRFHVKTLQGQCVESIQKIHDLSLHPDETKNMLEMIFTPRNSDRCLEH

[16] = Genotoxicity in human MCF7 cells assessed as abnormal tail nuclei measured after 48 hrs by ethidium bromide staining based fluorescent microscopic analysis; assay type: toxicity, cell-based; settings: mcf7, 48 h
[17] = Genotoxicity in human MCF7 cells assessed as appearance of damaged DNA structures measured after 48 hrs by ethidium bromide staining based fluorescent microscopic analysis; assay type: toxicity, cell-based; settings: mcf7, 48 h
[18] = Genotoxicity in human MDA-MB-231 cells assessed as appearance of damaged DNA structures measured after 48 hrs by ethidium bromide staining based fluorescent microscopic analysis; assay type: toxicity, cell-based; settings: mda-mb-231, 48 h
[19] = Genotoxicity in human MDA-MB-231 cells assessed as abnormal tail nuclei measured after 48 hrs by ethidium bromide staining based fluorescent microscopic analysis; assay type: toxicity, cell-based; settings: mda-mb-231, 48 h
[20] = Drug localization in mitochondria of human MDA-MB-231 cells at 2 uM incubated for 45 mins by MitoTracker dye based confocal laser scanning microscopic analysis; assay type: ADME; settings: mda-mb-231, 0.75 h

SMILES	IC50 at 48 h [1] [µM]	IC50 (MCF7 [2]) [µM]	IC50 (MDA-MB-231 [3]) [µM]	Live cells (PNT1A [4]) [%]	Activity (PNT1A [5]) [%]	Activity (PNT1A [6]) [%]	Activity (PNT1A [7]) [%]	Activity (MDA-MB-231 [8]) [%]	Activity (MDA-MB-231 [9]) [%]	Activity (MDA-MB-231 [10]) [%]	Activity (MDA-MB-231 [11]) [%]	Activity (MCF7 [12]) [%]	Activity (MCF7 [13]) [%]	Activity (MCF7 [14]) [%]	Activity (MCF7 [15]) [%]	IC50 (Aromatase) [µM]	Activity [16]	Activity [17]	Activity [18]	Activity [19]	also measured
Cc1ccc2c(c1)C(=O)C(=O)N2Cc1cn(CCCOc2c3cc(C(C)(C)C)cc2Cc2cc(/C=C/c4cc[n+](C)cc4)cc(c2O)Cc2cc(C(C)(C)C)cc(c2OCCCn2cc(CN4C(=O)C(=O)c5cc(C)ccc54)nn2)Cc2cc(/C=C/c4cc[n+](C)cc4)cc(c2O)C3)nn1.[I-].[I-]	74.9	10.2	5.23	95.6	3.99	0.35	0.06	83.89	0.02	1.31	14.78	71.51	10.49	15.04	2.96	0.218	Toxic	Toxic	Toxic	Toxic	
C[n+]1ccc(/C=C/c2cc3c(O)c(c2)Cc2cc(C(C)(C)C)cc(c2OCCCn2cc(CN4C(=O)C(=O)c5cc(F)ccc54)nn2)Cc2cc(/C=C/c4cc[n+](C)cc4)cc(c2O)Cc2cc(C(C)(C)C)cc(c2OCCCn2cc(CN4C(=O)C(=O)c5cc(F)ccc54)nn2)C3)cc1.[I-].[I-]	62.9	11.6	5.59	93.92	5.69	0.28	0.1	64.85	0.11	2.03	33.01	41.92	2.18	45.79	10.11	0.711	Toxic	Toxic	Toxic	Toxic	
C[n+]1ccc(/C=C/c2cc3c(O)c(c2)Cc2cc(C(C)(C)C)cc(c2OCCCn2cc(CN4C(=O)C(=O)c5cc(Cl)ccc54)nn2)Cc2cc(/C=C/c4cc[n+](C)cc4)cc(c2O)Cc2cc(C(C)(C)C)cc(c2OCCCn2cc(CN4C(=O)C(=O)c5cc(Cl)ccc54)nn2)C3)cc1.[I-].[I-]	32.9	8.83	3.32	97.91	1.74	0.25	0.11	83.4	0.23	2.74	13.63	53.45	4.56	36.24	5.75	0.104	Toxic	Toxic	Toxic	Toxic	Drug uptake [20]: Active
C[n+]1ccc(/C=C/c2cc3c(O)c(c2)Cc2cc(C(C)(C)C)cc(c2OCCCn2cc(CN4C(=O)C(=O)c5cc(Br)ccc54)nn2)Cc2cc(/C=C/c4cc[n+](C)cc4)cc(c2O)Cc2cc(C(C)(C)C)cc(c2OCCCn2cc(CN4C(=O)C(=O)c5cc(Br)ccc54)nn2)C3)cc1.[I-].[I-]	57.2	10.1	3.78	96.14	2.6	1.13	0.14	87.12	0.4	1.6	10.87	40.42	34.66	24.62	0.3	0.315	Toxic	Toxic	Toxic	Toxic	
C[n+]1ccc(/C=C/c2cc3c(O)c(c2)Cc2cc(C(C)(C)C)cc(c2OCCCn2cc(CN4C(=O)C(=O)c5ccccc54)nn2)Cc2cc(/C=C/c4cc[n+](C)cc4)cc(c2O)Cc2cc(C(C)(C)C)cc(c2OCCCn2cc(CN4C(=O)C(=O)c5ccccc54)nn2)C3)cc1.[I-].[I-]	77.6	19.2	9.24	99.14	0.16	0.08	0.63	91.42	0.26	1.66	6.66	50.95	8.09	37.69	3.27	0.518	Toxic	Toxic	Toxic	Toxic	
C[n+]1ccc(/C=C/c2cc3c(O)c(c2)Cc2cc(C(C)(C)C)cc(c2OCCCn2cc(CN4C(=O)C(=O)c5cc(I)ccc54)nn2)Cc2cc(/C=C/c4cc[n+](C)cc4)cc(c2O)Cc2cc(C(C)(C)C)cc(c2OCCCn2cc(CN4C(=O)C(=O)c5cc(I)ccc54)nn2)C3)cc1.[I-].[I-]	72.5	15.1	3.98	96.68	2.22	1.09	0.02	84.61	0.21	1.57	13.61	49.15	12.97	36.55	1.33	1.03	Toxic	Toxic	Toxic	Toxic	
C[n+]1ccc(/C=C/c2cc3c(O)c(c2)Cc2cc(C(C)(C)C)cc(c2OCCCn2cc(CBr)nn2)Cc2cc(/C=C/c4cc[n+](C)cc4)cc(c2O)Cc2cc(C(C)(C)C)cc(c2OCCCn2cc(CBr)nn2)C3)cc1	86.4	28.4	22.8																		
O=c1[nH]cc(F)c(=O)[nH]1 [FLUOROURACIL]	192	35.3	6.81																		
